Source: patent US6737383B1, “Herbicidal oxadiazolidines” (priority 1999, dated 2004)

Legend:
bedstraw = assay: Test B pre/postemergence bedstraw; type: in vivo, Galium aparine; details: Postemergence
How it was run: (§1)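 Test chemicals in a non-phytotoxic solvent mixture with surfactant were sprayed preemergence onto planted seeds and postemergence onto plants 2 to 18 cm tall (1- to 4-leaf stage). After twelve to sixteen days in a greenhouse, injury was visually rated against untreated controls from 0 (no effect) to 10 (complete control).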

blackgrass = assay: Test B pre/postemergence blackgrass; type: in vivo, Alopecurus myosuroides
How it was run: as §1

surinam grass = assay: Test B pre/postemergence surinam grass; type: in vivo, Brachiaria decumbens
How it was run: as §1

cocklebur = assay: Test B pre/postemergence cocklebur; type: in vivo, Xanthium strumarium; details: for Cocklebur plant response rating: scale of 0 to 10 where 0 is no effect and 10 is complete control
How it was run: as §1

corn = assay: Test B pre/postemergence corn; type: in vivo, Zea mays; details: for Corn plant response rating: scale of 0 to 10 where 0 is no effect and 10 is complete control
How it was run: as §1

crabgrass = assay: Test B pre/postemergence crabgrass; type: in vivo, Digitaria sanguinalis; details: for Crabgrass plant response rating: scale of 0 to 10 where 0 is no effect and 10 is complete control
How it was run: as §1

rape = assay: Test B pre/postemergence rape; type: in vivo, Brassica napus; details: for Rape plant response rating: scale of 0 to 10 where 0 is no effect and 10 is complete control
How it was run: as §1

soybean = assay: Test B pre/postemergence soybean; type: in vivo, Glycine max; details: for Soybean plant response rating: scale of 0 to 10 where 0 is no effect and 10 is complete control
How it was run: as §1

sugar beet = assay: Test B pre/postemergence sugar beet; type: in vivo, Beta vulgaris; details: for Sugarbeets plant response rating: scale of 0 to 10 where 0 is no effect and 10 is complete control
How it was run: as §1

velvetleaf = assay: Test B pre/postemergence velvetleaf; type: in vivo, Abutilon theophrasti; details: for Velvetleaf plant response rating: scale of 0 to 10 where 0 is no effect and 10 is complete control
How it was run: as §1

wheat = assay: Test B pre/postemergence wheat; type: in vivo, Triticum aestivum; details: for Wheat plant response rating: scale of 0 to 10 where 0 is no effect and 10 is complete control
How it was run: as §1

wild oat = assay: Test B pre/postemergence wild oat; type: in vivo, Avena fatua; details: for Wild oats plant response rating: scale of 0 to 10 where 0 is no effect and 10 is complete control
How it was run: as §1

purple nutsedge = assay: Test B pre/postemergence purple nutsedge; type: in vivo, Cyperus rotundus; details: for Nutsedge plant response rating: scale of 0 to 10 where 0 is no effect and 10 is complete control
How it was run: as §1

rice = assay: Test B flood test rice; type: in vivo, Oryza sativa
How it was run: (§2)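 Read-out is a visual response score from 0 (no effect) to 10 (complete control), assigned by comparison with untreated controls. Treatment was applied at the 2-leaf stage, and plants stayed in the greenhouse for twelve to sixteen days before scoring.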

smallflower flatsedge = assay: Test B flood test smallflower flatsedge; type: in vivo, Cyperus difformis
How it was run: as §2

duck salad = assay: Test B flood test duck salad; type: in vivo, Heteranthera limosa
How it was run: as §2

bamyardgrass = assay: Test B flood test barnyardgrass; type: in vivo, Echinochloa crus-galli
How it was run: as §2

[1] = Postemergence, Rate 125 g/ha, scale 0 to 10, 0 is no effect, 10 is complete control
[2] = Preemergence, Rate 62 g/ha, scale 0 to 10 (0 no effect, 10 complete control)
[3] = Preemergence, Rate 500 g/ha, scale of 0 to 10 where 0 is no effect and 10 is complete control
[4] = Rate 62 g/ha, Postemergence, scale of 0 to 10 where 0 is no effect and 10 is complete control
[5] = Rate 250 g/ha, Postemergence, scale of 0 to 10 where 0 is no effect and 10 is complete control
[6] = Rate 500 g/ha, Postemergence, scale 0 to 10, 0 no effect, 10 complete control
[7] = Postemergence (flood test), Rate 125 g/ha, scale 0 to 10, 0 is no effect, 10 is complete control
[8] = Rate 62 g/ha, Postemergence (flood test species), scale of 0 to 10 where 0 is no effect and 10 is complete control
[9] = Rate 500 g/ha, listed under Postemergence (flood test species), scale 0 to 10, 0 no effect, 10 complete control

## CC(C)N(C(=O)n1oc(=O)n(C2CCC2)c1=O)c1ccc(Cl)cc1 [Compound 349]
bedstraw; Rate 125 g/ha, scale 0 to 10, 0 is no effect, 10 is complete control
  Plant response rating, Bedstraw: 3
bedstraw; Rate 62 g/ha, scale of 0 to 10 where 0 is no effect and 10 is complete control
  Bedstraw plant response rating: 2
bedstraw; Rate 500 g/ha, scale 0 to 10, 0 no effect, 10 complete control
  Plant response rating, Bedstraw: 3
blackgrass; [1]
  Plant response rating, Blackgrass: 4
blackgrass; [2]
  Plant response rating, Blackgrass: 2
blackgrass; Preemergence, Rate 125 g/ha
  Blackgrass plant response rating (0 to 10 scale): 2
blackgrass; Preemergence, Rate 250 g/ha, scale of 0 to 10 where 0 is no effect and 10 is complete control
  Blackgrass plant response rating: 4
blackgrass; [3]
  Blackgrass plant response rating: 4
blackgrass; [4]
  Blackgrass plant response rating: 1
blackgrass; [5]
  Plant response rating, Blackgrass: 4
blackgrass; [6]
  Plant response rating, Blackgrass: 6
Surinam grass; [1]
  Plant response rating, B. signalgrass: 0
Surinam grass; [3]
  B. signalgrass plant response rating: 4
Surinam grass; [4]
  B. signalgrass plant response rating: 0
Surinam grass; [5]
  Plant response rating, B. signalgrass: 0
Surinam grass; [6]
  Plant response rating, B. signalgrass: 0
cocklebur; [1]
  Plant response rating, Cocklebur: 0
cocklebur; [2]
  Plant response rating, Cocklebur: 0
cocklebur; Preemergence, Rate 125 g/ha
  Cocklebur plant response rating (0 to 10 scale): 0
cocklebur; Preemergence, Rate 500 g/ha
  Cocklebur plant response rating: 0
cocklebur; Rate 62 g/ha, Postemergence
  Cocklebur plant response rating: 0
cocklebur; [6]
  Plant response rating, Cocklebur: 1
corn; [1]
  Plant response rating, Corn: 0
corn; [2]
  Plant response rating, Corn: 0
corn; Preemergence, Rate 125 g/ha
  Corn plant response rating (0 to 10 scale): 0
corn; Preemergence, Rate 250 g/ha
  Corn plant response rating: 0
corn; Preemergence, Rate 500 g/ha
  Corn plant response rating: 2
corn; Rate 62 g/ha, Postemergence
  Corn plant response rating: 0
corn; [6]
  Plant response rating, Corn: 0
crabgrass; [1]
  Plant response rating, Crabgrass: 0
crabgrass; [2]
  Plant response rating, Crabgrass: 3
crabgrass; Preemergence, Rate 125 g/ha
  Crabgrass plant response rating (0 to 10 scale): 6
crabgrass; Preemergence, Rate 250 g/ha
  Crabgrass plant response rating: 8
crabgrass; Preemergence, Rate 500 g/ha
  Crabgrass plant response rating: 9
crabgrass; Rate 62 g/ha, Postemergence
  Crabgrass plant response rating: 0
crabgrass; [6]
  Plant response rating, Crabgrass: 3
rape; [1]
  Plant response rating, Rape: 0
rape; [2]
  Plant response rating, Rape: 0
rape; Preemergence, Rate 125 g/ha
  Rape plant response rating (0 to 10 scale): 0
rape; Preemergence, Rate 250 g/ha
  Rape plant response rating: 0
rape; Preemergence, Rate 500 g/ha
  Rape plant response rating: 4
rape; Rate 62 g/ha, Postemergence
  Rape plant response rating: 0
rape; [6]
  Plant response rating, Rape: 0
soybean; [1]
  Plant response rating, Soybean: 2
soybean; [2]
  Plant response rating, Soybean: 0
soybean; Preemergence, Rate 125 g/ha
  Soybean plant response rating (0 to 10 scale): 0
soybean; Preemergence, Rate 250 g/ha
  Soybean plant response rating: 0
soybean; Preemergence, Rate 500 g/ha
  Soybean plant response rating: 0
soybean; Rate 62 g/ha, Postemergence
  Soybean plant response rating: 1
soybean; [6]
  Plant response rating, Soybean: 2
Sugar beet; [1]
  Plant response rating, Sugarbeets: 0
Sugar beet; [2]
  Plant response rating, Sugarbeets: 0
Sugar beet; Preemergence, Rate 125 g/ha
  Sugarbeets plant response rating (0 to 10 scale): 2
Sugar beet; Preemergence, Rate 250 g/ha
  Sugarbeets plant response rating: 4
Sugar beet; Preemergence, Rate 500 g/ha
  Sugarbeets plant response rating: 4
Sugar beet; Rate 62 g/ha, Postemergence
  Sugarbeets plant response rating: 0
Sugar beet; [6]
  Plant response rating, Sugarbeets: 0
velvetleaf; [1]
  Plant response rating, Velvetleaf: 0
velvetleaf; [2]
  Plant response rating, Velvetleaf: 0
velvetleaf; Preemergence, Rate 125 g/ha
  Velvetleaf plant response rating (0 to 10 scale): 0
velvetleaf; Preemergence, Rate 250 g/ha
  Velvetleaf plant response rating: 3
velvetleaf; Preemergence, Rate 500 g/ha
  Velvetleaf plant response rating: 3
velvetleaf; Rate 62 g/ha, Postemergence
  Velvetleaf plant response rating: 0
velvetleaf; [6]
  Plant response rating, Velvetleaf: 0
wheat; [1]
  Plant response rating, Wheat: 0
wheat; [2]
  Plant response rating, Wheat: 0
wheat; Preemergence, Rate 125 g/ha
  Wheat plant response rating (0 to 10 scale): 0
wheat; Preemergence, Rate 250 g/ha
  Wheat plant response rating: 0
wheat; Preemergence, Rate 500 g/ha
  Wheat plant response rating: 0
wheat; Rate 62 g/ha, Postemergence
  Wheat plant response rating: 0
wheat; [6]
  Plant response rating, Wheat: 3
Wild oat; [1]
  Plant response rating, Wild oats: 0
Wild oat; [2]
  Plant response rating, Wild oats: 0
Wild oat; Preemergence, Rate 125 g/ha
  Wild oats plant response rating (0 to 10 scale): 0
Wild oat; Preemergence, Rate 250 g/ha
  Wild oats plant response rating: 3
Wild oat; Preemergence, Rate 500 g/ha
  Wild oats plant response rating: 9
Wild oat; Rate 62 g/ha, Postemergence
  Wild oats plant response rating: 0
Wild oat; [6]
  Plant response rating, Wild oats: 3
Purple nutsedge; [1]
  Plant response rating, Nutsedge: 0
Purple nutsedge; [2]
  Plant response rating, Nutsedge: 0
Purple nutsedge; Preemergence, Rate 125 g/ha
  Nutsedge plant response rating (0 to 10 scale): 0
Purple nutsedge; Preemergence, Rate 250 g/ha
  Nutsedge plant response rating: 0
Purple nutsedge; Preemergence, Rate 500 g/ha
  Nutsedge plant response rating: 0
Purple nutsedge; Rate 62 g/ha, Postemergence
  Nutsedge plant response rating: 0
Purple nutsedge; [6]
  Plant response rating, Nutsedge: 0
rice; [7]
  Plant response rating, Rice: 0
rice; [8]
  Rice plant response rating: 0
rice; [9]
  Plant response rating, Rice: 0
Smallflower flatsedge; [7]
  Plant response rating, S. Flatsedge: 5
Smallflower flatsedge; [8]
  S. Flatsedge plant response rating: 0
Duck salad; [7]
  Plant response rating, Ducksalad: 0
Duck salad; [8]
  Ducksalad plant response rating: 0
Duck salad; [9]
  Plant response rating, Ducksalad: 4
bamyardgrass; [7]
  Plant response rating, Barnyardgrass: 2
bamyardgrass; [8]
  Barnyardgrass plant response rating: 2
bamyardgrass; Rate 250 g/ha, Postemergence (flood test species), scale of 0 to 10 where 0 is no effect and 10 is complete control
  Plant response rating, Barnyardgrass: 9
bamyardgrass; [9]
  Plant response rating, Barnyardgrass: 9
